Results on eight compounds are retold here after patent US9309263B2, “Fused multi-cyclic sulfone compounds as inhibitors of beta-secretase and methods of use thereof” (AMGEN INC., priority 2013, dated 2016).

In series [1] the test system is pigment epithelium of the rat's eye. Conditions: higher compound dose given for three months; cited from earlier work.
A further series addresses Cathepsin D (Cat D) (Homo sapiens, UniProt P07339). In words: In vitro enzymatic Cathepsin D (Cat D) FRET assay. The class given is biochemical. An outline of the steps: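 FRET peptide substrate (20 nM) is cleaved by CHO-derived recombinant enzyme (9 nM) for 1 h after a 1 h inhibitor pre-incubation, at pH 3.5 in citrate buffer with 5 mM CHAPS and 10% DMSO. Tris addition ends the reaction; fluorescence measured at 500 nm excitation, 580 nm emission.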

For series [2], the system named is Aβ 40 in conditioned medium of cells stably expressing Amyloid Precursor Protein (APP). Nature of the series: In vitro BACE cell-based assay (Aβ 40 sandwich ELISA). Conditions: Homo sapiens, HEK293. In short, it runs like this:
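Aβ40 in conditioned medium measured by pAb40/biotin-6E10 sandwich ELISA with time-resolved europium fluorescence, after 24 h exposure of stable APP cells to compounds (10-point series starting 100 μM or 10 μM; 0.1% DMSO). IC50 fitted from percent of control against concentration.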

Series [3] concerns the target Beta Secretase enzyme (BACE) (Homo sapiens, UniProt P56817). Nature of the series: In vitro enzymatic BACE FRET assay. The class given is biochemical. Conditions: read-out: BACE1 FRET assay IC50. In short, it runs like this: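 Cleavage of a quenched 50 nM FRET peptide substrate, read as fluorescence (excitation 488 nm, […]) after 1 h and Tris quench to neutrality. Buffer: 0.05 M acetate pH 4.2 with 10% DMSO and 100 uM genapol. Inhibitor dilutions were pre-incubated 1 h with 0.2 nM enzyme.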

For the next series, the system named is Abeta 40. In words: In vivo inhibition of beta-secretase: Abeta 40 reduction in CSF and brain of the rat. Conditions: 10 mpk (unless otherwise noted), after 4 hrs. An excerpt: In Vivo Inhibition of Beta-Secretase
Several animal models, including mouse, rat, dog, and monkey, may be used to screen for inhibition of beta-secretase activity in vivo following administration of a test compound sample. Animals used in this invention can be wild type, transgenic, or gene knockout animals. For example, the Tg2576 mouse model, prepared and conducted as described in Hsiao et al., 1996, Science 274, 99-102, and other non-transgenic or gene knockout animals are useful to analyze in vivo inhibition of Amyloid beta peptide (Abeta) production in the presence of inhibitory test compounds. Generally, 2 to 18 month old Tg2576 mice, gene knockout mice or non-transgenic animals are administered test compounds formulated in vehicles, such as cyclodextran, phosphate buffers, hydroxypropyl methylcellulose or other suitable vehicles. One to twenty-four hours following the administration of compound, animals are sacrificed, and brains as well as cerebrospinal fluid (CSF) and plasma are removed for analysis of A-beta levels and drug or test compound concentrations (Dovey et al., 2001, Journal of Neurochemistry, 76, 173-181) Beginning at time 0, animals are administered by oral gavage, or other means of delivery such as intravenous injection, an inhibitory test compound of up to 100 mg/kg in a standard, conventional formulation, such as 2% hydroxypropyl methylcellulose, 1% Tween80. A separate group of animals receive 2% hydroxypropyl methylcellulose, 1% Tween80 alone, containing no test compound, and serve as a vehicle-control group. At the end of the test period, animals are sacrificed and brain tissues, plasma or cerebrospinal fluid are collected. Brains are either homogenized in 10 volumes (w/v) of 0.2% diethylamine (DEA) in 50 mM NaCl (Best et al., 2005, Journal of Pharmacology and Experimental Therapeutics, 313, 902-908), or in 10 volumes of 0.5% TritonX-100 in Tris-buffered saline (pH at about 7.6). Homogenates are centrifuged at 355,000 g, 4° C. for 30 minutes. CSF or brain supernatants are then analyzed for the presence of A-beta peptide by specific sandwich ELISA assays based on ECL (Electrochemiluminescence) technology. For example, rat Abeta40 is measured using biotinylated-4G8 (Signet) as a capture antibody and Fab40 (an in-house antibody specific to the C-terminal of Abeta40) as a detection antibody. For example, 4 hours after administration of 30 mg/kg oral dose of the test compound in 2% hydroxypropyl methylcellulose, 1% Tween80 (pH2.2) to 200 g male Sprague Dawley rats, amyloid beta peptide levels are measured for reduction by X % and Y % in cerebrospinal fluid and brain, respectively, when compared to the levels measured in the vehicle-treated or control […].
Actual vehicles used: Oral: 2% HPMC, 1% Tween80, pH 2.2
• IV: 5% EtOH, 45% Propylene Glycol in 5% Dextrose
The compounds of the invention may be shown to reduce the formation and/or deposition of amyloid beta peptide in the cerebrospinal fluid (CSF) as well as in the brain of a mouse or rat at either 3 mpk, 10 mpk or 30 mpk (mpk=mg compound per kg weight of the animal) dosing concentrations after 4 hrs.

The mark [4] stands for this setting: Abeta 40 in CSF of the rat, read-out: % reduction of rat CSF levels at 10 pmk.
Setting [5] is: Abeta 40 in brain of the rat, read-out: % reduction of rat brain levels at 10 mpk.
Where [6] appears, read: Cathepsin D FRET assay, read-out: CatD IC50.
Where [7] appears, read: text summary referring to data in Table 2.
Setting [8] is: average IC50, HEK cell assay, Aβ 40 readout.
[9] abbreviates: average IC50, in vitro enzymatic BACE FRET assay.

Like-named read-outs stand apart in the source and are kept apart here.

Chain of Beta Secretase enzyme (BACE) (P56817 46-501): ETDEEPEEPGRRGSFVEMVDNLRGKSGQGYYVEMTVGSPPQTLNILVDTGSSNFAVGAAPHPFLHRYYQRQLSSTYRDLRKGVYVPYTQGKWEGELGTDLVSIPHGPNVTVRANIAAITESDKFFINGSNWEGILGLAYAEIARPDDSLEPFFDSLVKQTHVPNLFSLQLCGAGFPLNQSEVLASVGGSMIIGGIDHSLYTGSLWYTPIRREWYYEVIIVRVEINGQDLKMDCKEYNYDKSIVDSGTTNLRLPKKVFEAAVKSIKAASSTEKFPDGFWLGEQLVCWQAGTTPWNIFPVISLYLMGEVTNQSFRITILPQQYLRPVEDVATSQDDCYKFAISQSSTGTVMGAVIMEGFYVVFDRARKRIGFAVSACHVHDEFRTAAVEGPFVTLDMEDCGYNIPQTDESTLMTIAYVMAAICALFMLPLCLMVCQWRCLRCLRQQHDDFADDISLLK
Chain of Cathepsin D (Cat D) (P07339 65-412, species assumed): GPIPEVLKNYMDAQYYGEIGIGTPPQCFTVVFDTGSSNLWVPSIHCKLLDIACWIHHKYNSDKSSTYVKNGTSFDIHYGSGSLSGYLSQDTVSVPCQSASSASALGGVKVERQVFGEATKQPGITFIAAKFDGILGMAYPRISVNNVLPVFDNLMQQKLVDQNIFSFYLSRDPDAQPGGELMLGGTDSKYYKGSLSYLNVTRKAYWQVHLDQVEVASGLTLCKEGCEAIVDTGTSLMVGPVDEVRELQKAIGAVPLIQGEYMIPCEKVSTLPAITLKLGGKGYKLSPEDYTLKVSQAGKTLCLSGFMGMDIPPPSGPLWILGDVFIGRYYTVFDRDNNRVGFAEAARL

For the compound `C[C@@]1(c2cc(-c3cncnc3)c(F)cc2F)CCSC(N)=N1` [LY 2811376], the “toxicology finding in the eye” value in series [1] is “damaged the pigment epithelium of the rat's eye”.

For the compound `C[C@H]1C[C@@H]2[C@](C)(N=C(N)C(C)(C)S2(=O)=O)c2cc(Nc3nccc4cc(C#N)cnc34)ccc2O1` [Example 56, 8-(((4aR,6S,11bR)-2-amino-3,3,6,11b-tetramethyl-4,4-dioxido-4a,5,6,11b-tetrahydro-3H-[1]benzoxepino[4,5-b][1,4]thiazin-10-yl)amino)-1,7-naphthyridine-3-carbonitrile], the half-maximal inhibitory concentration (IC50) on Cathepsin D (Cat D) (read-out: CatD IC50) came out at 544 µM; in series [2] (HEK cell, average IC50) it was 0.001 µM; in series [3] (average IC50), 0.002 µM. Also, the inhibition in vivo at 10 mg/kg in the series on Abeta 40 (setting [4]) stood at 70%; in the series on Abeta 40 (setting [5]), 61%.

Regarding `C[C@H]1C[C@@H]2[C@](C)(N=C(N)C(C)(C)S2(=O)=O)c2cc(NC(=O)c3ccc(C#N)cn3)ccc2O1` [Example 86, N-((4aR,6S,11bR)-2-amino-3,3,6,11b-tetramethyl-4,4-dioxido-4a,5,6,11b-tetrahydro-3H-[1]benzoxepino[4,5-b][1,4]thiazin-10-yl)-5-cyano-2-pyridinecarboxamide], the IC50 was 1140 µM on Cathepsin D (Cat D) (setting [6]), over 1200 µM at Cathepsin D (Cat D) (setting [7]), 0.002 µM in series [2] (setting [8]) and 0.003 µM in series [3] (setting [9]). Besides, the inhibition in vivo at 10 mg/kg in the series with Abeta 40 (setting [4]) and with Abeta 40 (setting [5]) was 79% each time.

Regarding `C#CCOc1cnc2c(Nc3ccc4c(c3)[C@@]3(C)N=C(N)C(C)(C)S(=O)(=O)[C@@H]3C[C@H](C)O4)nccc2n1` [Example 140, (4aR,6S,11bR)-3,3,6,11b-tetramethyl-N^~10^~-(2-(2-propyn-1-yloxy)pyrido[3,4-b]pyrazin-5-yl)-4a,5,6,11b-tetrahydro-3H-[1]benzoxepino[4,5-b][1,4]thiazine-2,10-diamine 4,4-dioxide], the IC50 at Cathepsin D (Cat D) (setting [6]) turned out to be 610 µM; in series [2] (setting [8]), 0.002 µM; in series [3] (setting [9]), 0.002 µM. For the same compound, the inhibition in vivo at 10 mg/kg with Abeta 40 (setting [4]) stood at 71%; in the series with Abeta 40 (setting [5]) it was 72%.

Take `C[C@H]1C[C@@H]2[C@](C)(N=C(N)C(C)(C)S2(=O)=O)c2cc(NC(=O)c3ccc(Cl)cn3)ccc2O1` [Example 85, N-((4aR,6S,11bR)-2-amino-3,3,6,11b-tetramethyl-4,4-dioxido-4a,5,6,11b-tetrahydro-3H-[1]benzoxepino[4,5-b][1,4]thiazin-10-yl)-5-chloro-2-pyridinecarboxamide]: the values for the IC50 (at Cathepsin D (Cat D) (setting [6]); in series [2] (setting [8]); in series [3] (setting [9])) were 607 µM, 0.003 µM and 0.004 µM, respectively. In addition, the inhibition in vivo at 10 mg/kg stood at 79% in the series with Abeta 40 (setting [4]) and 78% in the series on Abeta 40 (setting [5]).

With `Cc1cc(C(F)(F)F)cnc1C(=O)Nc1ccc2c(c1)[C@@]1(C)N=C(N)C(C)(C)S(=O)(=O)[C@@H]1C[C@H](C)O2` [Example 54, N-((4aR,6S,11bR)-2-amino-3,3,6,11b-tetramethyl-4,4-dioxido-4a,5,6,11b-tetrahydro-3H-[1]benzoxepino[4,5-b][1,4]thiazin-10-yl)-3-methyl-5-(trifluoromethyl)-2-pyridinecarboxamide], the IC50 on Cathepsin D (Cat D) (read-out: CatD IC50) is 1620 µM; at Cathepsin D (Cat D) (setting [7]), over 1200 µM; in series [2] (HEK cell, average IC50) it was 0.001 µM; in series [3] (average IC50), 0.006 µM. Moreover, the inhibition in vivo at 10 mg/kg in the series with Abeta 40 (setting [4]) came out at 76%; in the series on Abeta 40 (setting [5]), 63%.

For `COc1cnc(C(=O)Nc2ccc3c(c2)[C@@]2(C)N=C(N)C(C)(C)S(=O)(=O)[C@@H]2C[C@H](C)O3)cn1` [Example 55, N-((4aR,6S,11bR)-2-amino-3,3,6,11b-tetramethyl-4,4-dioxido-4a,5,6,11b-tetrahydro-3H-[1]benzoxepino[4,5-b][1,4]thiazin-10-yl)-5-methoxy-2-pyrazinecarboxamide], the IC50 on Cathepsin D (Cat D) (read-out: CatD IC50) was found to be 650 µM; in series [2] (HEK cell, average IC50), 0.004 µM; in series [3] (average IC50) it was 0.009 µM. Besides, the inhibition in vivo at 10 mg/kg is 74% with Abeta 40 (setting [4]) and 70% in the series with Abeta 40 (setting [5]).

In the case of `C[C@H]1C[C@@H]2[C@](C)(N=C(N)C(C)(C)S2(=O)=O)c2cc(Nc3ncnc4cc(C(F)(F)F)cnc34)ccc2O1` [Example 133, (4aR,6S,11bR)-3,3,6,11b-tetramethyl-N^~10^~-(7-(trifluoromethyl)pyrido[3,2-d]pyrimidin-4-yl)-4a,5,6,11b-tetrahydro-3H-[1]benzoxepino[4,5-b][1,4]thiazine-2,10-diamine 4,4-dioxide], the IC50 at Cathepsin D (Cat D) (setting [6]) was 427 µM; in series [2] (setting [8]) it was 0.005 µM; in series [3] (setting [9]), 0.01 µM. Further, the inhibition in vivo at 10 mg/kg came out at 63% with Abeta 40 (setting [4]) and 51% in the series on Abeta 40 (setting [5]).
